Drawing on patent publication US12415834B2, “GhR-binding peptide and composition comprising same” (priority 2021, dated 2025), this text covers Kd for nine compounds.

Starred links: 1 amine or outer side, 2 acyl side, 3 side chain; linkers in the order of their positions; H or OH if unused. Positions of bridges follow the written chain, without caps; N, C: chain ends. Non-standard residues stand in square brackets, D forms with d. Residues, ends and D or L forms follow the SMILES beside them. Groups on a side chain read outwards from the residue. *: point of attachment. X15 = NC(=O)[C@H](CCCCN*)NC(=O)COCCOCCNC(=O)COCCOCCNC(=O)CC[C@H](NC(=O)CC[C@H](NC(=O)CCCCCCCCCCCCCCCC(=O)O)C(=O)O)C(=O)O; X3 = NC(=O)[C@H](CCCCN*)NC(=O)CC[C@H](NC(=O)CC[C@H](NC(=O)CCCCCCCCCCCCCCC(=O)O)C(=O)O)C(=O)O; X20 = CC(=O)N[C@@H](CCC(=O)N[C@@H](CCC(=O)N[C@@H](CCCCN*)C(N)=O)C(=O)O)C(=O)O; Trp(1-CH2CO) = O=C([C@H](Cc1cn(CC(=O)[*:3])c2ccccc12)N[*:1])[*:2]; Trp(5-OMe) = COc1ccc2[nH]cc(C[C@H](N)C(=O)O)c2c1; Butanoyl(4-(4-I-phenyl)) = O=C(CCCc1ccc(I)cc1)*; Trp(5-OH) = N[C@@H](Cc1c[nH]c2ccc(O)cc12)C(=O)O; Phe(4-COOH) = N[C@@H](Cc1ccc(C(=O)O)cc1)C(=O)O; Piperazinyl(4-CH2COOH) = O=C(O)CN1CCN(*)CC1; X7 = O=C(O)CN1CCC(N[*:1])(C(=O)[*:2])CC1; C16 diacid = O=C(O)CCCCCCCCCCCCCCC(=O)*; γGlu = O=C(O)[C@H](CCC(=O)[*:2])N[*:1]; Hexanoyl(6-Ph) = O=C(CCCCCc1ccccc1)*; NMeK = CN[C@@H](CCCCN)C(=O)O; Aib = CC(C)(N)C(=O)O; CO = O=C([*:1])[*:2]

T1 sequence (P10912 with tags, fused parts or gaps limits assumed): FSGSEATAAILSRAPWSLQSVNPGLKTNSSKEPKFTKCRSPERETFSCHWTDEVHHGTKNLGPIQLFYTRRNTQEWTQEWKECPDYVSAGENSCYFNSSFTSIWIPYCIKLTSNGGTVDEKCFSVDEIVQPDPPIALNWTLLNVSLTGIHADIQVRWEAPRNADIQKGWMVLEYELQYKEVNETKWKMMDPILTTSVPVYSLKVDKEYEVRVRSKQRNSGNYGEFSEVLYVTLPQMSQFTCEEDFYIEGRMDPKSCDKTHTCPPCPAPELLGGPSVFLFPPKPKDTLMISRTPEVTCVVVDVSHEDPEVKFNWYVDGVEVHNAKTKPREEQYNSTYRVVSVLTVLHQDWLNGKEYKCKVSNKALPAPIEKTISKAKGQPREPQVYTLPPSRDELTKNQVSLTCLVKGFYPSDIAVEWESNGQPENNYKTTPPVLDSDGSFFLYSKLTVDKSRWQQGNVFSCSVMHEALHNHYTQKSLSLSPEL

One test concerns the target T1, Recombinant human GhR-Fc protein (Homo sapiens, UniProt P10912).
T1 construct: purchased R&D Systems
Kind of test: SPR binding assay (Biacore T200, single-cycle kinetics) of peptides against immobilized human GhR-Fc. The settings on record: SPR, hGhR; Table 1 bicyclic peptides; KD calculated from ka and kd; read-out: KD. The protocol:
SPR assay was performed using Biacore T200 (cytiva: Former GE Healthcare). After the equilibration of Series S Sensor Chip CM5 (produced by cytiva: Former GE Healthcare) with Running Buffer (HBS-EP with 1% (v/v) DMSO), an EDC/NHS mixture was injected at a flow rate of 10 μL/min for 7 minutes to thereby activate the functional groups on sensor chip. Recombinant human GhR-Fc protein (R&D Systems) in 10 mM Acetate (pH 4.0) was injected immobilized to at a flow rate of 5 μL/min. It took 7 minutes to immobilize the GhR on the substrate surfaces of the sensor chip. Then Ethanolamine was injected at a flow rate of 10 μL/min for 7 minutes. 1M Ethanolamine (aq.) was injected at a flow rate of 10 μL/min for 420 seconds for capping.
Using these Peptide Samples, kinetics of peptides against human GhR-Fc protein were measured. The method adopted for sample measurement was a single-cycle kinetics method. The analysis was conducted using the evaluation software provided with Biacore T200. A DMSO correction curve obtained by solvent correction measurements was applied for the analysis. Kinetics fitting was done on the difference data obtained by subtracting the baseline data from sample measurement data. KD values were calculated based on the association rate constant (ka) and dissociation rate constant (kd). […]
Consider `CC(C)[C@@H]1NC(=O)[C@H](C(C)C)NC(=O)[C@@H]2CCCCNC(=O)Cn3cc(c4ccccc43)C[C@H](NC(=O)[C@H](CC(N)=O)NC(=O)[C@H](CO)NC1=O)C(=O)N[C@@H](Cc1ccc(C(=O)O)cc1)C(=O)N[C@@H](CCCCN)C(=O)N[C@@H](Cc1c[nH]c3ccc(O)cc13)C(=O)NC(C)(C)C(=O)N[C@@H](C(C)C)C(=O)N[C@H](C(=O)NCCCC[C@H](NC(=O)COCCOCCNC(=O)COCCOCCNC(=O)CC[C@H](NC(=O)CC[C@H](NC(=O)CCCCCCCCCCCCCCCC(=O)O)C(=O)O)C(=O)O)C(N)=O)CSCC(=O)N[C@@H](Cc1ccc(C(=O)O)cc1)C(=O)N2C` [Compound 65] ({CH2CO}-[Phe(4-COOH)][NMeK]VVSN[Trp(1-CH2CO)][Phe(4-COOH)]K[Trp(5-OH)][Aib]VC-X15; lactam 2-7; thioether N-13), for which the Kd was 3.33 nM.

For the compound `CC(=O)N[C@@H](CCC(=O)N[C@@H](CCC(=O)N[C@@H](CCCCNC(=O)[C@@H]1CSCC(=O)N[C@@H](Cc2ccc(C(=O)O)cc2)C(=O)N(C)[C@H]2CCCCNC(=O)Cn3cc(c4ccccc43)C[C@H](NC(=O)[C@H](CC(N)=O)NC(=O)[C@H](CO)NC(=O)[C@H](C(C)C)NC(=O)[C@H](C(C)C)NC2=O)C(=O)N[C@@H](Cc2ccc(C(=O)O)cc2)C(=O)N[C@@H](CCCCN)C(=O)N[C@@H](Cc2c[nH]c3ccc(O)cc23)C(=O)NC(C)(C)C(=O)N[C@@H](C(C)C)C(=O)N1)C(N)=O)C(=O)O)C(=O)O` [Compound 58] ({CH2CO}-[Phe(4-COOH)][NMeK]VVSN[Trp(1-CH2CO)][Phe(4-COOH)]K[Trp(5-OH)][Aib]VC-X20; lactam 2-7; thioether N-13), the dissociation constant Kd was 3.51 nM.

`CC(C)[C@@H]1NC(=O)[C@H](C(C)C)NC(=O)[C@@H]2CCCCNC(=O)Cn3cc(c4ccccc43)C[C@H](NC(=O)[C@H](CC(N)=O)NC(=O)[C@H](CO)NC1=O)C(=O)N[C@@H](Cc1ccc(O)cc1)C(=O)N[C@@H](CCCCN)C(=O)N[C@@H](Cc1c[nH]c3ccc(O)cc13)C(=O)NC(C)(C)C(=O)N[C@@H](C(C)C)C(=O)N[C@H](C(=O)NCC(=O)N1CCC[C@H]1C(=O)N[C@H](CO)C(=O)N[C@H](CO)C(=O)N[C@H](CO)C(=O)N[C@@H](CCCCNC(=O)CC[C@H](NC(=O)CC[C@H](NC(=O)CCCCCCCCCCCCCCC(=O)O)C(=O)O)C(=O)O)C(N)=O)CSCC(=O)N[C@@H](Cc1ccc(O)cc1)C(=O)N2C` [Compound 31] ({CH2CO}-Y[NMeK]VVSN[Trp(1-CH2CO)]YK[Trp(5-OH)][Aib]VCGP[dS][dS][dS]K([γGlu-γGlu-C16 diacid])-NH2; lactam 2-7; thioether N-13): the dissociation constant (Kd) was 0.92 nM.

For `CC(C)[C@@H]1NC(=O)[C@H](C(C)C)NC(=O)[C@@H]2CCCCNC(=O)Cn3cc(c4ccccc43)C[C@H](NC(=O)[C@H](CC(N)=O)NC(=O)[C@H](CO)NC1=O)C(=O)N[C@@H](Cc1ccc(O)cc1)C(=O)N[C@@H](CCCCNC(=O)N1CCN(CC(=O)O)CC1)C(=O)N[C@@H](Cc1c[nH]c3ccc(O)cc13)C(=O)NC(C)(C)C(=O)N[C@@H](C(C)C)C(=O)N[C@H](C(=O)NCCCC[C@H](NC(=O)CC[C@H](NC(=O)CC[C@H](NC(=O)CCCCCCCCCCCCCCC(=O)O)C(=O)O)C(=O)O)C(N)=O)CSCC(=O)N[C@@H](Cc1ccc(O)cc1)C(=O)N2C` [Compound 27] ({CH2CO}-Y[NMeK]VVSN[Trp(1-CH2CO)]YK([CO-Piperazinyl(4-CH2COOH)])[Trp(5-OH)][Aib]VC-X3; lactam 2-7; thioether N-13), the Kd is 1.79 nM.

Still in this test, the particulars now being: SPR, hGhR; Table 2 monocyclic peptides; KD calculated from ka and kd; read-out: KD.
Turning to `COc1ccc2[nH]cc(C[C@@H]3NC(=O)[C@H](CC(N)=O)NC(=O)[C@H](CO)NC(=O)[C@H](C(C)C)NC(=O)[C@H](C(C)C)NC(=O)[C@H](CCCCNC(=O)CC[C@H](NC(=O)CC[C@H](NC(=O)CCCc4ccc(I)cc4)C(=O)O)C(=O)O)N(C)C(=O)[C@H](Cc4ccc(O)cc4)NC(=O)CSC[C@@H](C(N)=O)NC(=O)[C@H](C(C)C)NC(=O)C4(CCN(CC(=O)O)CC4)NC(=O)[C@H](Cc4c[nH]c5ccc(O)cc45)NC(=O)[C@H](CCCCN)NC(=O)[C@H](Cc4ccc(C(=O)O)cc4)NC3=O)c2c1` [Compound 50] ({CH2CO}-Y[NMeK]([γGlu-γGlu-Butanoyl(4-(4-I-phenyl))])VVSN[Trp(5-OMe)][Phe(4-COOH)]K[Trp(5-OH)][X7]VC-NH2; thioether N-13), the dissociation constant Kd was 4.13 nM.

As to `COc1ccc2[nH]cc(C[C@@H]3NC(=O)[C@H](CC(N)=O)NC(=O)[C@H](CO)NC(=O)[C@H](C(C)C)NC(=O)[C@H](C(C)C)NC(=O)[C@H](CCCCNC(=O)CC[C@H](NC(=O)CCCCCc4ccccc4)C(=O)O)N(C)C(=O)[C@H](Cc4ccc(C(=O)O)cc4)NC(=O)CSC[C@@H](C(N)=O)NC(=O)[C@H](C(C)C)NC(=O)C4(CCN(CC(=O)O)CC4)NC(=O)[C@H](Cc4c[nH]c5ccc(O)cc45)NC(=O)[C@H](CCCCN)NC(=O)[C@H](Cc4ccc(C(=O)O)cc4)NC3=O)c2c1` [Compound 38] ({CH2CO}-[Phe(4-COOH)][NMeK]([γGlu-Hexanoyl(6-Ph)])VVSN[Trp(5-OMe)][Phe(4-COOH)]K[Trp(5-OH)][X7]VC-NH2; thioether N-13), the Kd is 2.82 nM.

In the case of `COc1ccc2[nH]cc(C[C@@H]3NC(=O)[C@H](CC(N)=O)NC(=O)[C@H](CO)NC(=O)[C@H](C(C)C)NC(=O)[C@H](C(C)C)NC(=O)[C@H](CCCCNC(=O)CC[C@H](NC(=O)CC[C@H](NC(=O)CCCc4ccc(I)cc4)C(=O)O)C(=O)O)N(C)C(=O)[C@H](Cc4ccc(O)cc4)NC(=O)CSC[C@@H](C(N)=O)NC(=O)[C@H](C(C)C)NC(=O)C(C)(C)NC(=O)[C@H](Cc4c[nH]c5ccc(O)cc45)NC(=O)[C@H](CCCCN)NC(=O)[C@H](Cc4ccc(C(=O)O)cc4)NC3=O)c2c1` [Compound 53] ({CH2CO}-Y[NMeK]([γGlu-γGlu-Butanoyl(4-(4-I-phenyl))])VVSN[Trp(5-OMe)][Phe(4-COOH)]K[Trp(5-OH)][Aib]VC-NH2; thioether N-13), the Kd is 3.36 nM.

For the compound `COc1ccc2[nH]cc(C[C@@H]3NC(=O)[C@H](CC(N)=O)NC(=O)[C@H](CO)NC(=O)[C@H](C(C)C)NC(=O)[C@H](C(C)C)NC(=O)[C@H](CCCCNC(=O)CC[C@H](NC(=O)CCCc4ccc(I)cc4)C(=O)O)N(C)C(=O)[C@H](Cc4ccc(C(=O)O)cc4)NC(=O)CSC[C@@H](C(N)=O)NC(=O)[C@H](C(C)C)NC(=O)C4(CCN(CC(=O)O)CC4)NC(=O)[C@H](Cc4c[nH]c5ccc(O)cc45)NC(=O)[C@H](CCCCN)NC(=O)[C@H](Cc4ccc(C(=O)O)cc4)NC3=O)c2c1` [Compound 36] ({CH2CO}-[Phe(4-COOH)][NMeK]([γGlu-Butanoyl(4-(4-I-phenyl))])VVSN[Trp(5-OMe)][Phe(4-COOH)]K[Trp(5-OH)][X7]VC-NH2; thioether N-13), the Kd is 10.8 nM.

With `COc1ccc2[nH]cc(C[C@@H]3NC(=O)[C@H](CC(N)=O)NC(=O)[C@H](CO)NC(=O)[C@H](C(C)C)NC(=O)[C@H](C(C)C)NC(=O)[C@H](CCCCNC(=O)CC[C@H](NC(=O)CCCc4ccc(I)cc4)C(=O)O)N(C)C(=O)[C@H](Cc4ccc(O)cc4)NC(=O)CSC[C@@H](C(N)=O)NC(=O)[C@H](C(C)C)NC(=O)C(C)(C)NC(=O)[C@H](Cc4c[nH]c5ccc(O)cc45)NC(=O)[C@H](CCCCNC(=O)N4CCN(CC(=O)O)CC4)NC(=O)[C@H](Cc4ccc(O)cc4)NC3=O)c2c1` [Compound 44] ({CH2CO}-Y[NMeK]([γGlu-Butanoyl(4-(4-I-phenyl))])VVSN[Trp(5-OMe)]YK([CO-Piperazinyl(4-CH2COOH)])[Trp(5-OH)][Aib]VC-NH2; thioether N-13), the Kd was 9.67 nM.

In general, Kd refers to a measure of binding affinity in units of concentration.
